Like-named read-outs stand apart in the source and are kept apart here.
How the values were obtained:
subcutaneous adipocytes = experiment: Lipid assay (AdipoRed staining of differentiated adipocytes); assay type: cell-based; conditions: combination with 10 ng/ml N-(4-amino-2-methylquinolin-6-yl)-2-((4-ethylphenoxy)methyl)benzamide; one week treatment
Procedure: The lipid assay is performed on subcutaneous adipocytes. Cell culture dishes are inoculated with preadipocytes, which undergo differentiation into adipocytes. This is followed by treatment with the active substance for one week, during which the cells synthesize lipids and store them in vesicles. The total amount of lipid as a function of active substance effects is determined at the end of the culture period. This is done by staining the cell monolayer with the lipophilic fluorescent dye AdipoRed, followed by quantification by fluorescence spectroscopy.

[1] = LDH (lactate dehydrogenase) cytotoxicity assay, fibroblasts
Procedure: The third assay performed is the LDH (lactate dehydrogenase) cytotoxicity assay. In this assay, the metabolic enzyme LDH is detected in the medium supernatant of the cell monolayer by adding a substrate for the enzyme to the cell culture supernatant. Reaction of the latter produces a color change, which is determined photometrically. The magnitude of the color change correlates here with the amount of LDH in the cell culture supernatant.
For all assays, the active substances were present as 1000× stocks dissolved to 10 mM in DMSO and were diluted 1:1000 in the appropriate cell culture medium for use.

dermal fibroblasts = experiment: BrdU viability assay (cell division rate); assay type: cell-based; conditions: combination with 10 ng/ml N-(4-amino-2-methylquinolin-6-yl)-2-((4-ethylphenoxy)methyl)benzamide; 24 h treatment
Procedure: For the viability assay, dermal fibroblasts were treated with active substances/active substance combinations in the cell culture medium for 24 h and during this time were provided with BrdU (5-bromodeoxyuridine). The cells take up this synthetic nucleic acid, which is detectable by fluorescence detection, and incorporate it into newly synthesized genetic material during cell division. The fluorescence of the cell monolayer is then measured after 24 h, the intensity of which is ultimately a measure of the cell division rate during treatment with the active substance. This allows conclusions to be drawn about the effect of the individual active substances on cell viability.

[2] = combination with 10 ng/ml N-(4-amino-2-methylquinolin-6-yl)-2-((4-ethylphenoxy)methyl)benzamide, table does not say whether fibroblasts or adipocytes

SMILES | Assay in which the combination showed better activity than the corresponding active substance alone: Lipid (subcutaneous adipocytes) | Assay in which the combination showed better activity than the corresponding active substance alone: LDH [1, 2] | further results
C=CC(C)(O)CCC=C(C)CC (mixture of isomers) [Ethyl linalool] | Lipid |  | 
OCc1ccccc1 [Benzyl alcohol DD, Benzyl alcohol] | Lipid |  | 
O=C(C=Cc1ccccc1)OCc1ccccc1 [Benzyl cinnamate] | Lipid |  | 
O=C(OCc1ccccc1)c1ccccc1O [Benzyl salicylate] |  |  | Assay in which the combination showed better activity than the corresponding active substance alone: LDH [1]: LDH
CC(C)=CCCC(C)=CC=O [Citral 95, Citral] |  |  | Assay in which the combination showed better activity than the corresponding active substance alone: BrdU (dermal fibroblasts): BrdU
CC(C)=CCCC(C)CCO (centres unmarked) [Citronellol 950, Citronellol] | Lipid | LDH | 
C=CC(C)CCCC(C)(C)O (centres unmarked) [Dihydromyrcenol] | Lipid |  | 
CCOc1cc(C=O)ccc1O [Ethyl vanillin] | Lipid |  | 
C=CCc1ccc(O)c(OC)c1 [Eugenol] |  |  | Assay in which the combination showed better activity than the corresponding active substance alone: BrdU (dermal fibroblasts): BrdU
CC(C)=CCCC(C)=CCCC(C)=CCO [Farnesol] |  | LDH | 
CCCCCC1C(=O)CCC1CC(=O)OC (centres unmarked) [Hedion] | Lipid | LDH | Assay in which the combination showed better activity than the corresponding active substance alone: BrdU (dermal fibroblasts): BrdU
CC/C=C\CCO [Hexenol cis-3] | Lipid | LDH | Assay in which the combination showed better activity than the corresponding active substance alone: BrdU (dermal fibroblasts): BrdU
CCCCCCOC(=O)c1ccccc1O [Hexyl salicylate] | Lipid | LDH | 
CC(CC=O)CCCC(C)(C)O (centres unmarked) [Hydroxycitronellal] |  | LDH | 
CC(=O)C1(C)CC2=C(CCCC2(C)C)CC1C (centres unmarked) [Iso E Super] | Lipid | LDH | 
CC(C=O)Cc1ccc(C(C)(C)C)cc1 (centres unmarked) [Lilial] |  | LDH | 
C=C(C)[C@H]1CC=C(C)CC1 [Limonene D pure, Limonene D] | Lipid |  | 
C=CC(C)(O)CCC=C(C)C (centres unmarked) [Linalool aroma, Linalool] | Lipid | LDH | 
C=CC(C)(CCC=C(C)C)OC(C)=O (centres unmarked) [Linalyl acetate] |  | LDH | 
O=C1CCCCCCCCCCCCCCO1 [Macrolide supra] | Lipid |  | 
CCCCCC#CC(=O)OC [Methyl heptine carbonate] | Lipid | LDH | 
OCCc1ccccc1 [Phenylethyl alcohol] |  |  | Assay in which the combination showed better activity than the corresponding active substance alone: BrdU (dermal fibroblasts): BrdU
Cc1ccc(C(C)C)c(O)c1 [Thymol cryst., Thymol] |  | LDH | 
